Laboratory results published in US6057085A, “Color photographic recording material” (Agfa-Gevaert NV, priority 1997, dated 2000).

Assay: log P(o/w), n-octanol/water two phase system
Format: physicochemical
Excerpt: *log P(o/w) is the decimal logarithm of the distribution coefficient
of a substance in the noctanol/water two phase system.

logP, > 5:
CCCCCCCCCCCCCCCCS(=O)(=O)Nc1ccc2nc(C(C#N)=Cc3ccc(N(CC)CC)cc3C)sc2c1 [GF-4]
CCCCCCCCCCCCNc1cc(C)c(C=C(C#N)c2nc3ccc(NS(C)(=O)=O)cc3o2)cc1C [GF-5]

logP, < 5:
CN(C)c1ccc(C=C(C#N)c2nc3cc(C(=O)O)ccc3o2)cc1 [Dye I-1]
Cc1cc(N(CC(=O)OC(C)COC(C)COC(C)(C)C)CC(=O)OC(C)COC(C)COC(C)(C)C)ccc1C=C(C#N)c1nc2cc(C(=O)O)ccc2o1 (centres unmarked) [Dye I-6]
CCOCCOCCN(CCOCCOCC)c1ccc(C=C(C#N)c2nc3cc(S(=O)(=O)NC(=O)CC)ccc3o2)cc1 [Dye I-10]
CCOCCOCCN(CCOCCOCC)c1ccc(C=C(C#N)c2nc3cc(S(=O)(=O)NC(=O)CC)ccc3s2)cc1 [Dye I-22]
CCCCOC(=O)CN(CC(=O)OCCCC)c1ccc(C=C(C#N)C(=O)c2ccc(NS(C)(=O)=O)cc2)c(C)c1 [GF-2]
CCCCS(=O)(=O)Nc1ccc(C2=C(C#N)C(=O)OC2=Cc2ccco2)cc1 [GF-3]
